According to patent US20120101099A1, “HISTONE DEACETYLASE INHIBITORS” (ANTHEM BIOSCIENCES PRIVATE LIMITED, priority 2009, published 2012):
Where a name gives a salt, the structure may show the parent alone.

What was measured:
[1] = system: human HDAC (Hela cells nuclear extract); assay: HDAC activity screening, Hela nuclear extract, Boc-Lys(Ac)-AMC substrate; assay type: biochemical; conditions: Hela nuclear extract; for IC50: read-out: IC50 (50% HDAC inhibitory concentration), Table 2; for HDAC % Inhibition (1 μM): 1 μM compound; for HDAC % Inhibition (10 μM): 10 μM compound
Description: To study the human HDAC inhibition the in-house 96 well plate assay have been established using fluorescent substrate (Boc-Lys (Ac)-AMC Substrate). Hela cells nuclear extract have been used as enzyme source.
Assay was performed in 96-well black microplate and total volume of the assay was 100 μL. Hela nuclear extract was diluted HDAC assay buffer (final concentration of 3.0 μg/mL). Enzyme mixture was made of 10 μL of diluted enzyme and 30 μL of HDAC buffer. 40 μl of enzyme mixture followed by 10 μL of test compound (final concentration from 0.01 to 10 μM) or vehicle (control) was added to each well. The plate was pre-incubated at 37° C. for 10 minutes. The HDAC reaction was started by adding 50 μl of HDAC substrate Boc-Lys (Ac)-AMC (Anaspec, Inc Fremont, Calif., USA). The plate was incubated at 37° C. for 45 minutes. The reaction was stopped by adding 50 μL of Trypsin stop solution and plate further incubated at 37° C. for 15 minutes. Measuring the fluorescence at excitation wavelength of 360 nm and emission wavelength of 460 nm monitored the release of AMC. Buffer alone and substrate alone served as blank.

[2] = Oral bioavailability and pharmacokinetics studies; assay type: in vivo, male Balb/c mice
Description: The studies were performed to determine the oral bioavailability and pharmacokinetics of test compounds in male Balb/c mice. Study was performed after obtaining the Institutional Animal Ethics Committee (IAEC) permission. Mice aged 5 to 6 weeks weighing around 25 to 30 g were used for this study. The animals were fasted overnight with free access to water. Animals were administered test compounds by oral route at a 50 mg/kg body weight (formulation: 0.5% methylcellulose in water and 0.1% tween 80. Dose volume 10 ml/kg b.w.) or intravenous route at a dose 10 mg/kg b.w. […] (formulation: 0.9% saline. Dose volume 10 ml/kg b.w.) Blood samples were collected at various time points during the next 24 hours post dose. The blood samples were centrifuged at 3000 g for 5 minutes at 4° C. and the corresponding plasma samples were collected in clean pre-labeled tubes. Then, each sample was subjected to a suitable extraction method and analysed by LC-MS/MS (API 3200 LC-MS/MS system). Data was analyzed using WinNonlin version 5.2 (Pharsight).

PA-1 = assay: Cell proliferation assay (MTT); assay type: cell-based; conditions: Homo sapiens, Table 1, MTT, 48 hours, read-out: Cell growth inhibition (GI50 in μM) PA-1
Description: (§1) Cells were seeded in a 96-well cell culture plates at a concentration of 10,000 cells per well and incubated at 37° C. in CO2 incubator.
(§2) Twenty-four hours later cells were treated with different concentrations (100, 10, 1, 0.1, and 0.01 μM) of compound dissolved in DMSO and incubated for 48 hours. For To measurement, 24 hours after seeding the cells, 20 μL of 3-(4.5-dimethyl-2- thiazolyl)-2,5-diphenyl-2H-tetrazolium (MTT) solution per well was added to the T0 plate and incubated for 3 hours at 37° C. in a CO2 incubator.
(§3) The plate containing cells and test compounds was treated similarly after 48 hours of incubation. After 3 hours of MTT addition, well contents were aspirated carefully followed by addition of 100 μL DMSO per well. Plates were agitated to ensure dissolution of the formazan crystals in DMSO and absorbance was read at 570 nm (A570). […] From the percentage growths a dose response curve was generated and GI50 values were interpolated from the growth curves.

PC-3 = assay: Cell proliferation assay (MTT); assay type: cell-based; conditions: Homo sapiens, PC-3; Table 1; MTT, 48 hours; read-out: Cell growth inhibition (GI50 in μM) PC-3
Description: as §1, §2, §3

A549 = assay: Cell proliferation assay (MTT); assay type: cell-based; conditions: Homo sapiens, A549; Table 1; MTT, 48 hours; read-out: Cell growth inhibition (GI50 in μM) A549
Description: as §1, §2, §3

[3] = plasma, oral 50 mg/kg, male Balb/c mouse

SMILES	IC50 [1]	times higher AUC ([2]; compared with SAHA, oral)	times longer terminal half life ([2]; compared with SAHA, oral)	HDAC % Inhibition (1 μM) [1]	HDAC % Inhibition (10 μM) [1]	GI50 (PA-1)	GI50 (PC-3)	GI50 (A549)	bioavailability ([2]; plasma, oral 50 mg/kg vs intravenous, male Balb/c mouse)	AUC(0-t) [2, 3]	Cmax [2, 3]	Tmax [2, 3]	half-life [2, 3]
CCN(CC)CCc1ccc(-c2cn(Cc3ccc(C(=O)NO)cc3)nn2)cc1 [Example 11, 4-{4-[4-(2-Diethylamino-ethyl)-phenyl]-[1,2,3]triazol-1-ylmethyl}-N-hydroxy-benzamide]	0.0186 µM	9 times	2 times	–	–	–	–	–	–	–	–	–	–
O=C(/C=C/c1ccc(Cn2cc(-c3ccc(CN4CCOCC4)cc3)nn2)cc1)NO [Example 20]	0.019 µM	–	–	96%	100%	0.16 ± 0.02 µM	12.7 ± 5.6 µM	2.9 ± 1.8 µM	–	–	–	–	–
CN(C)Cc1ccc(-c2cn(Cc3cccc(/C=C/C(=O)NO)c3)nn2)cc1 [Example 27, 3-{3-[4-(4-Dimethylaminomethyl-phenyl)-[1,2,3]triazol-1-ylmethyl]-phenyl}-N-hydroxy-acrylamide hydrochloride]	0.001 µM	–	–	99%	99%	0.02 µM	4.5 ± 5.7 µM	0.4 ± 0.2 µM	–	–	–	–	–
CCN(CC)Cc1ccc(-c2cn(Cc3ccc(C(=O)NO)cc3)nn2)c(F)c1 [Example 13, 4-[4-(4-Diethylaminomethyl-2-fluoro-phenyl)-[1,2,3]triazol-1-ylmethyl]-N-hydroxy-benzamide]	0.0191 µM	–	–	–	–	–	–	–	68 ± 6%	3340 ng·h/mL	3360 ng/mL	4.8 min	2 h
